Experimental data from patent US6727227B1, “Tetrapetide revealing geroprotective effect, pharmacological substance on its basis, and the method of its application” (Obschestvo S Ogranichennoi Otvetstven-Nostiju “Klinika …, priority 2002, dated 2004).
Read-outs that look alike come from different tables or passages of the source. Marks after values point to notes of the source that are not given here. Residues, ends and D or L forms follow the SMILES beside them.

Tests used:
catalase [1] = assay: Catalase activity in homogenates of 14 days old flies of LA strain; type: in vivo, Drosophila melanogaster of LA strain
Procedure: (§1) The impact produced by L-Ala-L-Glu-L-Asp-Gly tetrapeptide (SEQ ID NO: 1) on catalase activity, the content of the products of lipid peroxide oxidation (LPO), life span, and the ageing rate were studied in Drosophila melanogaster of LA strain.
(§2) L-Ala-L-Glu-L-Asp-Gly tetrapeptide (SEQ ID NO: 1) was applied in the larvae of the 3rd age in dose 0.00001% of the culture medium weight, which constituted approximately 0.015 mg/100 ml. Catalase activity was estimated by generally accepted methods in the homogenates of adult 14 days old flies. The experiment was carried out with a subsequent repetition.
(§3) Regression and dispersal analyses served as the basic technique of statistic processing. The authenticity of differences was confirmed by the method of minimal relevant diversity.

catalase [2] = assay: Catalase activity in 14-day old flies of HEM strain; type: in vivo, Drosophila melanogaster of HEM strain; settings: 0.00001% of culture medium weight
Text: L-Ala-L-Glu-L-Asp-Gly tetrapeptide (SEQ ID NO: 1) was applied in Drosophila melanogaster larvae of the 2nd age of HEM strain selected for a high ageing rate (20). HEM strain is characterised by the unique dynamics of embryonic mortality, which consists in an increased frequency of early embryonic lethal outcomes from 65% on the 1st day of egg-laying up to 95% on the 4th day, in a reduced average life span (29 days), and in a raised intensity of lipid peroxide oxidation.
L-Ala-L-Glu-L-Asp-Gly tetrapeptide (SEQ ID NO: 1) was added in proportion 0.00001% of the culture medium weight, which was an extremely low dose. The doses described in literature on the influence of various substances on Drosophila melanogaster usually ranged from 0.001 to 0.01%.
Biochemical parameters were studied on 14-day old flies. Among them the activity of catalase activity and the intensity of tissue chemoluminescence were analysed (21, 22, 23). Catalase is the basic enzyme of anti-oxidation defence. […] Luminol-dependent chemoluminescence, induced by hydrogen peroxide, reflects the stage of active oxygen forms in tissues. Thus, a decrease in the chemoluminescence intensity indicates an increase in the organism ability to resist oxidative stress.

[3] = test system: Drosophila melanogaster of LA strain; assay: Life span and ageing rate, LA strain; type: in vivo; settings: for ALS / Me / LSmax (maximal life span): 0.00001% of medium weight; for LSmax (maximal life span): in days
Text: as §1
One-day old flies were placed in test tubes, 10 individuals of the same sex in each. Every 2 days they were transferred to a fresh medium taking into consideration the number of deceased individuals. The average and maximal life spans were defined. The ageing rate was calculated by the parameters of Gomperz equation.
as §2, §3

[4] = test system: Drosophila melanogaster of EA strain; assay: Chemoluminescence intensity in homogenates of 7-day old flies of EA strain; type: in vivo
Procedure: Drosophila melanogaster of EA strain served as a model for studying the influence of L-Ala-L-Glu-L-Asp-Gly tetrapeptide (SEQ ID NO: 1) on catalase activity, tissue chemoluminescence, and life span.
L-Ala-L-Glu-L-Asp-Gly tetrapeptide (SEQ ID NO: 1) was applied in the larvae of the 3rd age in dose 0.00001% of the culture medium weight, which constituted approximately 0.015 mg/100 ml. Catalase activity and the intensity of chemoluminescence were estimated in the homogenates of adult 7-day old flies by generally accepted methods. The experiment was conducted with a subsequent 5 repetition.
Regression and dispersal analyses served as the basic technique of statistic processing.

[5] = test system: Drosophila melanogaster of “wild” Canton-S strain; settings: for ALS ± statistic errors / Alterations in ALS: Canton-S; for Alterations in ALS: versus control
Procedure: In this research Drosophila melanogaster of “wild” Canton-S strain were employed.
L-Ala-L-Glu-L-Asp-Gly tetrapeptide (SEQ ID NO: 1) in the solution form was introduced into the culture medium provided for the growth of insects, which was cooled down to 50-60° C., with subsequent careful stirring and depositing it into test tubes.
To make the conditions of both the control and experimental population development identical, an amount of sodium chloride equal to that used for L-Ala-L-Glu-L-Asp-Gly tetrapeptide (SEQ ID NO: 1) solution was introduced into the culture medium for the control. The concentration of all the substances employed was calculated by the ratio to the mass of the culture medium provided for reproduction.
4-day old female flies underwent a randomly selected mating with males for 72 hours, one couple per each test tube, after which parental couples were removed from the test tubes. To form every new generation the posterity of 50 to 80 couples was used.
Life span (LS) was investigated on laboratory populations, each of them consisting of 90 individuals of each sex. Immediately after hatching the flies were randomly placed in test tubes, 10 individuals in each. Substitution of the culture medium was carried out 3 times a week.
Average values (ALS) and standard errors calculated by the traditional method were applied as life span distribution parameters. Average values were compared to each other with the application of Student t-criterion.
For experimental study 6 concentrations of L-Ala-L-Glu-L-Asp-Gly tetrapeptide (SEQ ID NO: 1) were selected: 0.01×, 0.1×, 1×, 5×, 7.5×, and 12.5×10^−6% of the culture medium weight.

[6] = test system: Drosophila melanogaster of LA strain; assay: Content of lipid peroxide oxidation products (conjugated hydro-peroxides), LA strain; type: in vivo
Procedure: as §1, §2, §3

[7] = females, concentration 0.01 ×10^−6%
[8] = females, concentration 0.1 ×10^−6%
[9] = females, concentration 1.0 ×10^−6%
[10] = females, concentration 5.0 ×10^−6%
[11] = females, concentration 7.5 ×10^−6%
[12] = females, concentration 12.5 ×10^−6%
[13] = males, concentration 0.01 ×10^−6%
[14] = males, concentration 0.1 ×10^−6%
[15] = males, concentration 1.0 ×10^−6%
[16] = males, concentration 5.0 ×10^−6%
[17] = males, concentration 7.5 ×10^−6%
[18] = males, concentration 12.5 ×10^−6%

C[C@H](N)C(=O)N[C@@H](CCC(=O)O)C(=O)N[C@@H](CC(=O)O)C(=O)NCC(=O)O [L-Ala-L-Glu-L-Asp-Gly tetrapeptide, L-alanyl-L-glutamyl-L-aspartyl-glycine] (H-AEDG-OH)
Specific activity of catalase (catalase [1]; females): 42.57 μmole H2O2/mg of protein per min. | Specific activity of catalase (catalase [1]; males): 57.44* μmole H2O2/mg of protein per min. | Catalase activity (catalase [2]; females): 98.8 ± 1.62 mmole H2O2/mg of protein per min. | Catalase activity (catalase [2]; males): 132.3 ± 3.68 mmole H2O2/mg of protein per min. | LSmax without taking into consideration intersexual distinctions ([3]; both sexes): notably extended | G 10^2 (parameter of Gomperz equation) ([3]; females): 4.3 ± 0.90 days^−1 | LnR0 (parameter of Gomperz equation) ([3]; females): -3.806 ± 0.2580 day⁻¹ | MRDT ([3]; females): 3.8 | Type of geroprotector (survival rate curves and Gomperz charts) ([3]; females): geroprotector of the 1st type | ALS ([3]; females): 20 ± 1.3 days | Me ([3]; females): 17 days | LSmax (maximal life span) ([3]; females): 44 ± 1.9 | G 10^2 (parameter of Gomperz equation) ([3]; males): 10.9 ± 3.45 days^−1 | LnR0 (parameter of Gomperz equation) ([3]; males): −5.496 ± 0.711 days^1 | MRDT ([3]; males): 2.9 | Type of geroprotector (survival rate curves and Gomperz charts) ([3]; males): geroprotector of the 3rd type | ALS ([3]; males): 24 ± 0.96 days | Me ([3]; males): 28.5 days | LSmax (maximal life span) ([3]; males): 33 ± 0.9 | Chemoluminescence intensity ([4]; females): 4.61 ± 0.395 conv. unit/mg of protein per p | Chemoluminescence intensity ([4]; males): 4.93 ± 0.109 conv. unit/mg of protein per p | ALS ± statistic errors [5, 7]: 35.41 ± 1.07 | Alterations in ALS [5, 7]: 13.4% | Alterations in ALS ([5]; females, concentration 0.01 ×10^−6%, listed as L-Ala-L-Glu-L-Asp-Gly): +13.4% | ALS ± statistic errors [5, 8]: 35.41 ± 1.07 | Alterations in ALS [5, 8]: 11.8% | Alterations in ALS ([5]; females, concentration 0.1 ×10^−6%, listed as L-Ala-L-Glu-L-Asp-Gly): +11.8% | ALS ± statistic errors [5, 9]: 35.76 ± 1.35 | Alterations in ALS [5, 9]: −1.1% | ALS ± statistic errors [5, 10]: 38.04 ± 1.56 | Alterations in ALS [5, 10]: +3.2% | ALS ± statistic errors [5, 11]: 31.16 ± 1.21 | Alterations in ALS [5, 11]: −7.6% | ALS ± statistic errors [5, 12]: 37.06 ± 1.12 | Alterations in ALS [5, 12]: +5.6% | Duration of stage development (lack of genotoxic effect) ([5]; in vivo): did not alter the duration of their stage development | ALS ± statistic errors [5, 13]: 36.47 ± 1.09 | Alterations in ALS [5, 13]: +12.0% | ALS ± statistic errors [5, 14]: 34.85 ± 1.18 | Alterations in ALS [5, 14]: +10.8% | ALS ± statistic errors [5, 15]: 36.77 ± 1.44 | Alterations in ALS [5, 15]: +13.3% | ALS ± statistic errors [5, 16]: 37.74 ± 1.16 | Alterations in ALS [5, 16]: +11.3% | ALS ± statistic errors [5, 17]: 39.98 ± 0.99 | Alterations in ALS [5, 17]: −0.03% | ALS ± statistic errors [5, 18]: 33.96 ± 1.01 | Alterations in ALS [5, 18]: −9.0% | Content of conjugated hydro-peroxides ([6]; females): 1.290* nmole/g of tissue | Content of conjugated hydro-peroxides ([6]; males): 1.202 nmole/g of tissue
